Measurements as given in US12605653B2, “Anionic switchable hydrophilicity solvents” (QUEEN'S UNIVERSITY AT KINGSTON, priority 2022, dated 2026).

Experiments:
[1] = binary mixtures: score of the worse actor of the two; cited from earlier work
[2] = tested on: fish; conditions: 96 hr LC50 (fish); binary mixtures: worse actor; cited from earlier work
[3] = specific target organ toxicity, single exposure; binary mixtures: worse actor; cited from earlier work
[4] = NOEC or ECx; binary mixtures: worse actor; cited from earlier work
[5] = binary mixtures: score of the worse actor of the two; cited from earlier work; remark: listed apart in the source
[6] = binary mixtures: worse actor; cited from earlier work
[7] = binary mixtures: worse actor; cited from earlier work; remark: listed apart in the source
[8] = Evaluation of the switching behaviour of ASHS systems (carboxylic acid/base/water) under air and 1 bar of CO2; type: physicochemical; conditions: for Behaviour of the system after CO2 addition / pH under 1 bar of CO2 / pH under air: 20° C.; for Phase behaviour upon addition of 1 bar of CO2: base Jeffamine D-230, TEA, DMEA or 3DMAP, base:acid mole ratio 1:1, water:acid mass ratio 15:1 and other ratios; for Phase behaviour upon addition of CO2 / Phases under air: substoichiometric aqueous NaOH, 0.6 to 0.7 equivalents of base
Procedure: Base solutions were prepared by combining the desired base and water (mass for components measured in an analytical scale) into either a 10 or 25 mL graduated cylinder (containing a magnetic stir bar) depending on the final volume of the mixture obtained. The carboxylic acid (mass measured using an analytical balance prior to addition) being studied was added to the base solution, and the mixture was mixed with the help of a magnetic stir plate. The amount of base and water used were selected based on the acid:base:water ratio desired. Experiments were carried out using stoichiometric and substoichiometric amounts of the base relative to the number of mols of acid added. In addition, the quantity of water used was adjusted based on the acid:water mass ratio desired. A typical experiment would contain 1 g of the carboxylic acid; between 0.4 and 1 mol of base per mol of acid; and a water mass varying from 1 to 9.5 g.
During a typical experiment, CO2 would be added for approximately 2 h at atmospheric pressure. At the end of the 2 h, the sparge tube would be removed, and the number and volume of the phases obtained would be recorded. The pH was once again recorded. For mixtures with only 1 phase, the pH of that phase was recorded. While for mixtures with 2 phases, the pH of the aqueous phase was recorded.
In the systems in which the base:acid mole ratio and the water:acid mass ratio were being studied, a slight modification from this method was used. The acid being tested (1 g) was mixed with 1 g of water and the required amount of NaOH (based on the acid:base molar ratio desired) to prepare the mixture. […]
The base solution was then added to the carboxylic acid, and the next steps followed the procedure previously described.

[9] = Switching behaviour of ASHS systems under elevated pressures of CO2; type: physicochemical; conditions: EHA:NaOH:H2O combinations that did not become biphasic upon 1 bar of CO2
Procedure: The sight gauge was kept at a constant temperature (20° C.) in a water bath. The solutions were maintained under stirring due to a magnetic stir bar controlled by a magnetic stir plate. To maximize the stirring, the vessel was placed on its side (horizontal position). The mixture was then pressurized to 10 bar of CO2 in the sight gauge. In order to determine the volume of the phases obtained, measurements of the height of the water-rich and the carboxylic acid phase were obtained using a cathetometer while the vessel was in a vertical position. The relationship between height and internal volume on the sight gauge is known. The vessel was then slowly depressurized. The phases were collected using a glass pipette.

[10] = binary mixtures: score of the worse actor of the two; cited from earlier work; remark: listed apart in the source
[11] = base 3DMAP, base:acid mole ratio 0.45:1, H2O:acid mass ratio 2.5:1
[12] = base DMEA, base:acid mole ratio 0.50:1, H2O:acid mass ratio 2.5:1
[13] = base Jeffamine D-230 (two moles acid per mole D-230), H2O:acid mass ratio 12:1, 1 bar CO2, partial = acid recovered smaller than mass added
[14] = base Jeffamine D-230 (two moles acid per mole D-230), H2O:acid mass ratio 12:1
[15] = base Jeffamine D-230 (two moles acid per mole D-230), H2O:acid mass ratio 15:1, 1 bar CO2, partial = acid recovered smaller than mass added
[16] = base Jeffamine D-230 (two moles acid per mole D-230), H2O:acid mass ratio 15:1
[17] = base MDEA, base:acid mole ratio 0.50:1, H2O:acid mass ratio 2.5:1
[18] = base NaOH, 2:1 H2O:acid mass ratio, 1 bar CO2, narrow range of base:acid ratio
[19] = base TEA, base:acid mole ratio 0.40:1, H2O:acid mass ratio 2.5:1
[20] = base 3DMAP, base:acid mole ratio 0.50:1, H2O:acid mass ratio 2.5:1
[21] = base DMEA, base:acid mole ratio 0.55:1, H2O:acid mass ratio 2.5:1
[22] = base MDEA, base:acid mole ratio 0.55:1, H2O:acid mass ratio 2.5:1
[23] = base TEA, MDEA, DMEA or 3-DMAP, base:acid mol ratio 1:1, H2O:acid mass ratio 1:1
[24] = base TEA, MDEA, DMEA or 3-DMAP, base:acid mol ratio 1:1, H2O:acid mass ratio 2:1
[25] = base TEA, MDEA, DMEA or 3-DMAP, base:acid mol ratio 1:1, H2O:acid mass ratio 6:1
[26] = base TEA, MDEA, DMEA or 3-DMAP, base:acid mol ratio 1:1, H2O:acid mass ratio 15:1
[27] = base TEA, base:acid mole ratio 0.55:1, H2O:acid mass ratio 2.5:1

Compound: CCCCN(CCO)CCCC [Bu2NCH2CH2OH, N,N-dibutylethanolamine]
- Acute toxicity (oral), GHS category [1]: 4 (category 4 (H302) means 300 < LD50 ≤ 2000 mg/kg)
- Acute aquatic toxicity, GHS category [2]: 3 (category 3 (H402) means 10 < 96 hr LC50 (fish) ≤ 100 mg/L)
- Organ toxicity, GHS category [3]: 3
- Chronic aquatic toxicity, GHS category [4]: 3 (category 3 (H412) means 0.1 < NOEC or ECx ≤ 1)
- Acute toxicity (dermal), GHS category [5]: 4 (category 4 (H312) means 1000 < LD50 ≤ 2000 mg/kg)
- Eye irritation, GHS category [6]: 1
- Skin irritation, GHS category [7]: 1C

Compound: O=C(O)CCC1CCCC1 [CPPA, 3-cyclopentylpropionic acid]
- Behaviour of the system after CO2 addition ([8]; base 3DMAP, base:acid mole ratio 0.45:1, H2O:acid mass ratio 2.5:1, 1 bar CO2, threshold 50 vol % recovered): Phase separation above 50
- pH under 1 bar of CO2 [8, 11]: 6.02
- pH under air [8, 11]: 6.06
- Behaviour of the system after CO2 addition ([8]; base DMEA, base:acid mole ratio 0.50:1, H2O:acid mass ratio 2.5:1, 1 bar CO2): No phase separation
- pH under 1 bar of CO2 [8, 12]: 6.25
- pH under air [8, 12]: 6.22
- Behaviour of the system after CO2 addition [8, 13]: No phase separation
- pH under 1 bar of CO2 [8, 14]: 6.55
- pH under air [8, 14]: 7.00
- Behaviour of the system after CO2 addition [8, 15]: No phase separation
- pH under 1 bar of CO2 [8, 16]: 6.45
- pH under air [8, 16]: 6.94
- Phase behaviour upon addition of 1 bar of CO2 ([8]; MDEA): no phase separation was observed
- Behaviour of the system after CO2 addition ([8]; base MDEA, base:acid mole ratio 0.50:1, H2O:acid mass ratio 2.5:1, 1 bar CO2): No phase separation
- pH under 1 bar of CO2 [8, 17]: 6.23
- pH under air [8, 17]: 6.16
- Behaviour of the system [8, 18]: successful switchable behaviour
- Behaviour of the system ([8]; base NaOH, carboxylic acid:H2O mass ratio 1:2.5, carboxylic acid:NaOH mol ratio 1:0.8): Switchable
- Behaviour of the system after CO2 addition ([8]; base TEA, base:acid mole ratio 0.40:1, H2O:acid mass ratio 2.5:1, 1 bar CO2): No phase separation
- pH under 1 bar of CO2 [8, 19]: 6.04
- pH under air [8, 19]: 5.98
- Phase behaviour upon addition of CO2 [8]: phase separation was observed
- Phases under air [8]: one phase
- maximum polymer (EPS) loading attained in the carboxylic acid (CPPA-EPS mixture, limited by viscosity, 60° C.): 50 wt %

Compound: CCCCC(CC)C(=O)O (centres unmarked) [EHA, 2-ethylhexanoic acid]
- Behaviour upon the addition of 10 bar of CO2 [9]: successful switchable behaviour
- pH before the addition of CO2 ([8]; 0.8:1 NaOH:EHA mole ratio, 3:1 H2O:EHA mass ratio): 7.2
- Behaviour of the system ([8]; 0.8:1 NaOH:EHA mole ratio, 3:1 H2O:EHA mass ratio, 1 bar CO2): did not present a switchable behaviour
- pH before the addition of CO2 ([8]; 0.9:1 NaOH:EHA mole ratio, 1:1 H2O:EHA mass ratio): 7.5
- pH before the addition of CO2 ([8]; 0.9:1 NaOH:EHA mole ratio, 3:1 H2O:EHA mass ratio): 7.2
- pH before the addition of CO2 ([8]; 0.9:1 NaOH:EHA mole ratio, 4:1 H2O:EHA mass ratio): 7.1
- pH before the addition of CO2 ([8]; 0.9:1 NaOH:EHA mole ratio, 5:1 H2O:EHA mass ratio): 7.2
- Behaviour of the system ([8]; 0.9:1 NaOH:EHA mole ratio, 5:1 H2O:EHA mass ratio, 1 bar CO2): presented a switchable behaviour
- Behaviour of the system ([8]; 0.9:1 NaOH:EHA mole ratio, H2O:EHA mass ratio from 1:1 to 3:1, 1 bar of CO2): do not present a switchable behaviour
- Behaviour of the system ([8]; 0.9:1 NaOH:EHA mole ratio, extra water beyond 4:1 H2O:EHA mass ratio): become biphasic under air
- pH under air, lowest value once extra water is added ([8]; 0.9:1 NaOH:EHA mole ratio, more water than 4:1, pH decreases from 7.1): 6.6
- Behaviour of the system ([8]; 2.5:1 H2O:EHA mass ratio, 0.65 NaOH:EHA mol ratio, 1 bar CO2): switchable behaviour
- Behaviour of the system ([8]; 2.5:1 H2O:EHA mass ratio, 0.70 NaOH:EHA mol ratio, 1 bar CO2): remains monophasic after CO2 addition
- Behaviour of the system after CO2 addition ([8]; base 3DMAP, base:acid mole ratio 0.50:1, H2O:acid mass ratio 2.5:1, 1 bar CO2, threshold 50 vol % recovered): Phase separation above 50
- pH under 1 bar of CO2 [8, 20]: 6.64
- pH under air [8, 20]: 6.53
- Behaviour of the system after CO2 addition ([8]; base DMEA, base:acid mole ratio 0.55:1, H2O:acid mass ratio 2.5:1, 1 bar CO2, threshold 50 vol % recovered): Phase separation above 50
- pH under 1 bar of CO2 [8, 21]: 6.69
- pH under air [8, 21]: 6.57
- Behaviour of the system after CO2 addition [8, 13]: Partial phase separation
- pH under 1 bar of CO2 [8, 14]: 6.94
- pH under air [8, 14]: 6.98
- Behaviour of the system after CO2 addition [8, 15]: Partial phase separation
- pH under 1 bar of CO2 [8, 16]: 6.74
- pH under air [8, 16]: 8.34
- Phase behaviour upon addition of 1 bar of CO2 ([8]; MDEA): no phase separation was observed
- Behaviour of the system after CO2 addition ([8]; base MDEA, base:acid mole ratio 0.55:1, H2O:acid mass ratio 2.5:1, 1 bar CO2, threshold 50 vol % recovered): No phase separation
- pH under 1 bar of CO2 [8, 22]: 6.61
- pH under air [8, 22]: 6.50
- Behaviour of the system ([8]; base NH4OH, 2:1 H2O:acid mass ratio, 1 bar CO2): phase switchable behaviour was not observed
- Behaviour of the system [8, 18]: successful switchable behaviour
- Behaviour of the system ([8]; base NaOH, carboxylic acid:H2O mass ratio 1:2.5, carboxylic acid:NaOH mol ratio 1:0.6): Switchable
- Behaviour of the system after CO2 addition ([8]; base TEA, MDEA, DMEA or 3-DMAP, base:acid mol ratio 1:1, H2O:acid mass ratio 1:1, 1 bar CO2): No phase separation
- pH under 1 bar of CO2 [8, 23]: 7.50-8.05
- pH under air [8, 23]: 7.50-8.30
- Behaviour of the system after CO2 addition ([8]; base TEA, MDEA, DMEA or 3-DMAP, base:acid mol ratio 1:1, H2O:acid mass ratio 2:1, 1 bar CO2): No phase separation
- pH under 1 bar of CO2 [8, 24]: 7.20-7.60
- pH under air [8, 24]: 8.00-8.15
- Behaviour of the system after CO2 addition ([8]; base TEA, MDEA, DMEA or 3-DMAP, base:acid mol ratio 1:1, H2O:acid mass ratio 6:1, 1 bar CO2): No phase separation
- pH under 1 bar of CO2 [8, 25]: 6.20-6.70
- pH under air [8, 25]: 7.50-8.10
- Behaviour of the system after CO2 addition ([8]; base TEA, MDEA, DMEA or 3-DMAP, base:acid mol ratio 1:1, H2O:acid mass ratio 15:1, 1 bar CO2): No phase separation
- pH under 1 bar of CO2 [8, 26]: 6.60-6.80
- pH under air [8, 26]: 6.80-7.90
- Behaviour of the system after CO2 addition ([8]; base TEA, base:acid mole ratio 0.55:1, H2O:acid mass ratio 2.5:1, 1 bar CO2): No phase separation
- pH under 1 bar of CO2 [8, 27]: 6.53
- pH under air [8, 27]: 6.48
- Behaviour of the system ([8]; base pyridine, 2:1 H2O:acid mass ratio): the acid remains as a separate phase under air
- Phase behaviour upon addition of CO2 [8]: phase separation was observed
- Phases under air [8]: one phase
- maximum EPS loading that still allows the next steps (EHA as solvent): 5 wt %

Compound: CN(C)C1CCCCC1 [CyNMe2]
- Acute toxicity (oral), GHS category [1]: 3 (Category 3 (H301) means 50 < LD50 ≤ 300 mg/kg)
- Acute aquatic toxicity, GHS category [2]: 1 (Category 1 (H400) means 96 hr LC50 (fish) ≤ 1.0 mg/L)
- Acute toxicity (inhalation), GHS category [10]: 3 (category 3 (H331) means 2 < LC50 ≤ 10 mg/L)
- Acute toxicity (dermal), GHS category [5]: 3 (Category 3 (H311) means 200 < LD50 ≤ 1000 mg/kg)
